According to patent US20100267561A1, “HERBICIDAL PYRIDAZINONE DERIVATIVES” (priority 2007, published 2010):

Key:
Format in all cases: in vivo
[1] = tested on: large crabgrass (Digitaria sanguinalis); assay: Test A pre-/postemergence plant response
Summary of the method: (§1)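 Scores reflect visual plant injury relative to untreated controls on a 0–100 scale, recorded approximately 10 days after simultaneous preemergence soil spraying and postemergence spraying of one- to two-leaf seedlings grown in loam–sand.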

[2] = tested on: barnyardgrass (Echinochloa crus-galli); assay: Test A pre-/postemergence plant response
Summary of the method: as §1

[3] = tested on: corn (Zea mays); assay: Test A pre-/postemergence plant response
Summary of the method: as §1

[4] = tested on: giant foxtail (Setaria faberi); assay: Test A pre-/postemergence plant response
Summary of the method: as §1

[5] = tested on: wheat (Triticum aestivum); assay: Test A pre-/postemergence plant response
Summary of the method: as §1

[6] = tested on: umbrella sedge (Cyperus difformis); assay: Test B flooded paddy test plant response
Summary of the method: (§2)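 Step one: raise plants to 2 leaves. Step two: flood pots 3 cm over the soil and apply compound into the water, keeping this depth. Step three: after 13–15 greenhouse days, score visually versus controls, 0–100, where 100 means complete control.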

[7] = tested on: barnyardgrass (Echinochloa crus-galli); assay: Test B flooded paddy test plant response
Summary of the method: as §2

[8] = tested on: rice (Oryza sativa); assay: Test B flooded paddy test plant response
Summary of the method: as §2

[9] = tested on: chickweed (Stellaria media); assay: Test B postemergence plant response; conditions: for Chickweed plant response rating: 8 g ai/ha, postemergence, 0-100 scale; for Plant response rating, Chickweed: Postemergence
Summary of the method: (§3)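 Following treatment of plants 2 to 18 cm high after emergence, pots were held under glass for 13 to 15 days; efficacy was then graded visually, 100 denoting complete control and a dash no test result.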

[10] = tested on: canarygrass (Phalaris minor); assay: Test B postemergence plant response; conditions: for Canarygrass plant response rating: 8 g ai/ha, postemergence, 0-100 scale; for Plant response rating, Canarygrass: Postemergence
Summary of the method: as §3

[11] = tested on: windgrass (Apera spica-venti); assay: Test B postemergence plant response; conditions: for Windgrass plant response rating: postemergence, 0-100 scale; for Plant response rating, Windgrass: Postemergence
Summary of the method: as §3

[12] = tested on: winter barley (Hordeum vulgare); assay: Test B postemergence plant response; conditions: for Barley plant response rating: 8 g ai/ha, postemergence, 0-100 scale; for Plant response rating, Barley: Postemergence, scale 0 to 100, 0 no effect, 100 complete control
Summary of the method: as §3

[13] = Postemergence, 31 g ai/ha, 0 to 100 scale, 0 no effect, 100 complete control
[14] = Postemergence, 125 g ai/ha, 0 to 100 scale, 0 no effect, 100 complete control
[15] = Preemergence, 31 g ai/ha, 0 to 100 scale, 0 is no effect, 100 is complete control
[16] = Preemergence, 125 g ai/ha, 0 to 100 scale (0 no effect, 100 complete control)
[17] = Flood (flooded paddy test), 62 g ai/ha, scale 0 to 100, 0 no effect, 100 complete control
[18] = Flood (flooded paddy test), 125 g ai/ha, scale 0 to 100, 0 no effect, 100 complete control
[19] = Flood (flooded paddy test), 250 g ai/ha, scale 0 to 100, 0 no effect, 100 complete control
[20] = Flood, 31 g ai/ha, scale 0 to 100
[21] = 62 g ai/ha, scale 0 to 100, 0 no effect, 100 complete control

CCc1cc(-c2ccc(Br)cc2)nn1-c1c(O)cnn(CC(F)(F)F)c1=O [Compound 73]
Plant response rating, Crabgrass, Large [1, 13]: 40
Plant response rating, Crabgrass, Large [1, 14]: 100
Plant response rating, Crabgrass, Large [1, 15]: 0
Plant response rating, Crabgrass, Large [1, 16]: 50
Plant response rating, Barnyardgrass [2, 13]: 60
Plant response rating, Barnyardgrass [2, 14]: 100
Plant response rating, Barnyardgrass [2, 15]: 0
Plant response rating, Barnyardgrass [2, 16]: 10
Plant response rating, Corn [3, 13]: 90
Plant response rating, Corn [3, 14]: 100
Plant response rating, Corn [3, 15]: 0
Plant response rating, Corn [3, 16]: 20
Plant response rating, Foxtail, Giant [4, 13]: 50
Plant response rating, Foxtail, Giant [4, 14]: 100
Plant response rating, Foxtail, Giant [4, 15]: 0
Plant response rating, Foxtail, Giant [4, 16]: 30
Plant response rating, Wheat [5, 13]: 40
Plant response rating, Wheat [5, 14]: 70
Plant response rating, Wheat [5, 15]: 20
Plant response rating, Wheat [5, 16]: 70
Plant response rating, Sedge, Umbrella [6, 17]: 0
Plant response rating, Sedge, Umbrella [6, 18]: 0
Plant response rating, Sedge, Umbrella [6, 19]: 0
Plant response rating, Sedge, Umbrella [6, 20]: 0
Plant response rating, Barnyardgrass [7, 17]: 0
Plant response rating, Barnyardgrass [7, 18]: 0
Plant response rating, Barnyardgrass [7, 19]: 0
Plant response rating, Barnyardgrass [7, 20]: 0
Plant response rating, Rice [8, 17]: 0
Plant response rating, Rice [8, 18]: 0
Plant response rating, Rice [8, 19]: 0
Plant response rating, Rice [8, 20]: 0
Chickweed plant response rating [9]: 0
Plant response rating, Chickweed ([9]; 16 g ai/ha, scale 0 to 100): 0
Plant response rating, Chickweed ([9]; 31 g ai/ha, scale 0 to 100): 0
Plant response rating, Chickweed [9, 21]: 0
Canarygrass plant response rating [10]: 30
Plant response rating, Canarygrass ([10]; 16 g ai/ha, scale 0 to 100): 90
Plant response rating, Canarygrass ([10]; 31 g ai/ha, scale 0 to 100): 90
Plant response rating, Canarygrass [10, 21]: 100
Windgrass plant response rating ([11]; 8 g ai/ha): 50
Windgrass plant response rating ([11]; 16 g ai/ha): 60
Plant response rating, Windgrass ([11]; 31 g ai/ha, scale 0 to 100): 80
Plant response rating, Windgrass [11, 21]: 95
Barley plant response rating [12]: 0
Plant response rating, Barley ([12]; 16 g ai/ha): 40
Plant response rating, Barley ([12]; 31 g ai/ha): 40
Plant response rating, Barley ([12]; 62 g ai/ha): 70

CCCc1cc(-c2ccc(Cl)cc2)nn1-c1c(O)cnn(C)c1=O [Compound 76]
Plant response rating, Crabgrass, Large [1, 13]: 20
Plant response rating, Crabgrass, Large [1, 14]: 100
Plant response rating, Crabgrass, Large [1, 15]: 20
Plant response rating, Crabgrass, Large [1, 16]: 80
Plant response rating, Barnyardgrass [2, 13]: 90
Plant response rating, Barnyardgrass [2, 14]: 100
Plant response rating, Barnyardgrass [2, 15]: 40
Plant response rating, Barnyardgrass [2, 16]: 100
Plant response rating, Corn [3, 13]: 20
Plant response rating, Corn [3, 14]: 100
Plant response rating, Corn [3, 15]: 0
Plant response rating, Corn [3, 16]: 50
Plant response rating, Foxtail, Giant [4, 13]: 70
Plant response rating, Foxtail, Giant [4, 14]: 90
Plant response rating, Foxtail, Giant [4, 15]: 70
Plant response rating, Foxtail, Giant [4, 16]: 100
Plant response rating, Wheat [5, 13]: 20
Plant response rating, Wheat [5, 14]: 50
Plant response rating, Wheat [5, 15]: 0
Plant response rating, Wheat [5, 16]: 0
Plant response rating, Sedge, Umbrella [6, 17]: 0
Plant response rating, Sedge, Umbrella [6, 19]: 0
Plant response rating, Barnyardgrass [7, 17]: 0
Plant response rating, Barnyardgrass [7, 19]: 0
Plant response rating, Rice [8, 17]: 0
Plant response rating, Rice [8, 19]: 0
Chickweed plant response rating [9]: 0
Plant response rating, Chickweed ([9]; 16 g ai/ha, scale 0 to 100): 0
Plant response rating, Chickweed ([9]; 31 g ai/ha, scale 0 to 100): 0
Plant response rating, Chickweed [9, 21]: 0
Canarygrass plant response rating [10]: 45
Plant response rating, Canarygrass ([10]; 16 g ai/ha, scale 0 to 100): 60
Plant response rating, Canarygrass ([10]; 31 g ai/ha, scale 0 to 100): 90
Plant response rating, Canarygrass [10, 21]: 98
Windgrass plant response rating ([11]; 8 g ai/ha): 30
Windgrass plant response rating ([11]; 16 g ai/ha): 80
Plant response rating, Windgrass ([11]; 31 g ai/ha, scale 0 to 100): 80
Plant response rating, Windgrass [11, 21]: 90
Barley plant response rating [12]: 0
Plant response rating, Barley ([12]; 16 g ai/ha): 0
Plant response rating, Barley ([12]; 31 g ai/ha): 5
Plant response rating, Barley ([12]; 62 g ai/ha): 25
